Values of other authors in patent publication US8044020B2, “Pharmaceutical compositions and methods for insulin treatment” (CPEX Pharmaceuticals, Inc., priority 2003, dated 2011).

Settings: beagles; previously determined (Hseih, 1993)

Q: For `O=C1CCCCCCCCCCCCCCO1` [Cyclopentadecanolide], which “effect on migration of insulin through the nasal mucosa” value is on record?
A: facilitates the migration of insulin through the nasal mucosa
